Tests used:
Format in all cases: in vivo
[1] = test system: barnyardgrass (Echinochloa crus-galli, ECHCG); assay: Greenhouse herbicide screen, post-emerge application, phytotoxicity rating; settings: POST emergent, 14 days after application, scale 0-100
In short: (§1)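 Crop and weed responses were judged visually on a 0–100 scale two weeks post-treatment. Treatments: acetone solutions, 15–1000 g ai/ha, sprayed at 187 l/ha onto pre-emerge soil or 2–3-leaf plants.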

[2] = test system: cocklebur (Xanthium strumarium, XANST); assay: as above; settings: POST emergent, 14 days after application, scale 0-100
In short: as §1

[3] = test system: common ragweed (Ambrosia artemisiifolia L., AMBEL); assay: as above; settings: POST emergent, 14 days after application, scale 0-100
In short: as §1

[4] = test system: green foxtail (Setaria viridis, SETVI); assay: as above; settings: POST emergent, 14 days after application, scale 0-100
In short: as §1

[5] = test system: ivyleaf morningglory (Ipomoea hederacea, IPOHE); assay: as above; settings: POST emergent, 14 days after application, scale 0-100
In short: as §1

[6] = test system: johnsongrass (Sorghum halepense, SORHA); assay: as above; settings: POST emergent, 14 days after application, scale 0-100
In short: as §1

[7] = test system: lambsquarters (Chenopodium album, CHEAL); assay: as above; settings: POST emergent, 14 days after application, scale 0-100
In short: as §1

[8] = test system: large crabgrass (Digitaria sanguinalis, DIGSA); assay: as above; settings: POST emergent, 14 days after application, scale 0-100
In short: as §1

[9] = test system: redroot pigweed (Amaranthus retrofiexus, AMARE); assay: as above; settings: POST emergent, 14 days after application
In short: as §1

[10] = test system: sicklepod (Cassia obtusifolia, CASOB); assay: as above; settings: POST emergent, 14 days after application, scale 0-100
In short: as §1

[11] = test system: velvetleaf (Abutilon theophrasti, ABUTH); assay: as above; settings: POST emergent, 14 days after application, scale 0-100
In short: as §1

[12] = test system: field corn (Zea mays L., var. Dekalb 535, CORN); assay: Greenhouse herbicide screen, post-emerge application, crop damage rating; settings: POST emergent, 14 days after application, scale 0-100
In short: as §1

[13] = test system: upland rice (Oryza sp., var.Cocodrie, RICE); assay: as above; settings: POST emergent, 14 days after application, scale 0-100
In short: as §1

[14] = test system: barnyardgrass (Echinochloa crus-galli, ECHCG); assay: Greenhouse herbicide screen, pre-emerge application, phytotoxicity rating; settings: PRE emergent, 14 days after application, rating scale 0-100
In short: as §1

[15] = test system: cocklebur (Xanthium strumarium, XANST); assay: as above; settings: PRE emergent, 14 days after application, rating scale 0-100
In short: as §1

[16] = test system: common ragweed (Ambrosia artemisiifolia L., AMBEL); assay: as above; settings: PRE emergent, 14 days after application, rating scale 0-100
In short: as §1

[17] = test system: green foxtail (Setaria viridis, SETVI); assay: as above; settings: PRE emergent, 14 days after application, rating scale 0-100
In short: as §1

[18] = test system: ivyleaf morningglory (Ipomoea hederacea, IPOHE); assay: as above; settings: PRE emergent, 14 days after application, rating scale 0-100
In short: as §1

[19] = test system: johnsongrass (Sorghum halepense, SORHA); assay: as above; settings: PRE emergent, 14 days after application, rating scale 0-100
In short: as §1

[20] = test system: lambsquarters (Chenopodium album, CHEAL); assay: as above; settings: PRE emergent, 14 days after application, rating scale 0-100
In short: as §1

[21] = test system: large crabgrass (Digitaria sanguinalis, DIGSA); assay: as above; settings: PRE emergent, 14 days after application, rating scale 0-100
In short: as §1

[22] = test system: redroot pigweed (Amaranthus retrofiexus, AMARE); assay: as above; settings: PRE emergent, 14 days after application, rating scale 0-100
In short: as §1

[23] = test system: sicklepod (Cassia obtusifolia, CASOB); assay: as above; settings: PRE emergent, 14 days after application, rating scale 0-100
In short: as §1

[24] = test system: velvetleaf (Abutilon theophrasti, ABUTH); assay: as above; settings: PRE emergent, 14 days after application, rating scale 0-100
In short: as §1

[25] = test system: field corn (Zea mays L., var. Dekalb 535, CORN); assay: Greenhouse herbicide screen, pre-emerge application, crop damage rating; settings: PRE emergent, 14 days after application, rating scale 0-100
In short: as §1

[26] = test system: upland rice (Oryza sp., var.Cocodrie, RICE); assay: as above; settings: PRE emergent, 14 days after application, rating scale 0-100
In short: as §1

[27] = 63 g ai/ha, scale 0-100 (0 no damage, 100 complete death)

Compound: CN1CCN(NC(=O)c2cc(-n3c(=O)cc(C(F)(F)F)n(C)c3=S)c(F)cc2Cl)CC1 [Compound 1-14]
- phytotoxicity rating ECHCO ([1]; 63 g ai/ha): 0
- phytotoxicity rating ECHCO ([1]; 250 g ai/ha): 0
- phytotoxicity rating XANST ([2]; 63 g ai/ha): 70
- phytotoxicity rating XANST ([2]; 250 g ai/ha): 70
- phytotoxicity rating AMBEL ([3]; 63 g ai/ha): 0
- phytotoxicity rating AMBEL ([3]; 250 g ai/ha): 50
- phytotoxicity rating SETVI ([4]; 63 g ai/ha): 0
- phytotoxicity rating SETVI ([4]; 250 g ai/ha): 0
- phytotoxicity rating IPOHE ([5]; 63 g ai/ha): 100
- phytotoxicity rating IPOHE ([5]; 250 g ai/ha): 100
- phytotoxicity rating SORHA ([6]; 63 g ai/ha): 0
- phytotoxicity rating SORHA ([6]; 250 g ai/ha): 0
- phytotoxicity rating CHEAL ([7]; 63 g ai/ha): 0
- phytotoxicity rating CHEAL ([7]; 250 g ai/ha): 70
- phytotoxicity rating DIGSA ([8]; 63 g ai/ha): 0
- phytotoxicity rating DIGSA ([8]; 250 g ai/ha): 0
- phytotoxicity rating AMARE [9, 27]: 0
- phytotoxicity rating AMARE ([9]; 250 g ai/ha, scale 0-100): 30
- phytotoxicity rating CASOB ([10]; 63 g ai/ha): 0
- phytotoxicity rating CASOB ([10]; 250 g ai/ha): 0
- phytotoxicity rating ABUTH ([11]; 63 g ai/ha): 0
- phytotoxicity rating ABUTH ([11]; 250 g ai/ha): 35
- crop damage rating CORN ([12]; 63 g ai/ha): 0
- crop damage rating CORN ([12]; 250 g ai/ha): 50
- crop damage rating RICE ([13]; 63 g ai/ha): 0
- crop damage rating RICE ([13]; 250 g ai/ha): 0
- phytotoxicity rating ECHCG ([14]; 63 g ai/ha): 0
- phytotoxicity rating ECHCG ([14]; 250 g ai/ha): 70
- phytotoxicity rating XANST ([15]; 63 g ai/ha): 40
- phytotoxicity rating XANST ([15]; 250 g ai/ha): 65
- phytotoxicity rating AMBEL ([16]; 63 g ai/ha): 35
- phytotoxicity rating AMBEL ([16]; 250 g ai/ha): 70
- phytotoxicity rating SETVI ([17]; 63 g ai/ha): 0
- phytotoxicity rating SETVI ([17]; 250 g ai/ha): 55
- phytotoxicity rating IPOHE ([18]; 63 g ai/ha): 10
- phytotoxicity rating IPOHE ([18]; 250 g ai/ha): 65
- phytotoxicity rating SORHA ([19]; 63 g ai/ha): 70
- phytotoxicity rating SORHA ([19]; 250 g ai/ha): 95
- phytotoxicity rating CHEAL ([20]; 63 g ai/ha): 100
- phytotoxicity rating CHEAL ([20]; 250 g ai/ha): 100
- phytotoxicity rating DIGSA ([21]; 63 g ai/ha): 55
- phytotoxicity rating DIGSA ([21]; 250 g ai/ha): 70
- phytotoxicity rating AMARE ([22]; 63 g ai/ha): 95
- phytotoxicity rating AMARE ([22]; 250 g ai/ha): 100
- phytotoxicity rating CASOB ([23]; 63 g ai/ha): 0
- phytotoxicity rating CASOB ([23]; 250 g ai/ha): 50
- phytotoxicity rating ABUTH ([24]; 63 g ai/ha): 30
- phytotoxicity rating ABUTH ([24]; 250 g ai/ha): 90
- crop damage rating CORN ([25]; 63 g ai/ha): 0
- crop damage rating CORN ([25]; 250 g ai/ha): 0
- crop damage rating RICE ([26]; 63 g ai/ha): 0
- crop damage rating RICE ([26]; 250 g ai/ha): 50

Compound: CC(=NN=C(OS(C)(=O)=O)c1cc(-n2c(=O)cc(C(F)(F)F)n(C)c2=O)c(F)cc1Cl)C(C)(C)C [Compound 5-3]
- phytotoxicity rating ECHCO ([1]; 63 g ai/ha): 100
- phytotoxicity rating XANST ([2]; 63 g ai/ha): 70
- phytotoxicity rating AMBEL ([3]; 63 g ai/ha): 90
- phytotoxicity rating SETVI ([4]; 63 g ai/ha): 60
- phytotoxicity rating IPOHE ([5]; 63 g ai/ha): 100
- phytotoxicity rating SORHA ([6]; 63 g ai/ha): 30
- phytotoxicity rating CHEAL ([7]; 63 g ai/ha): 80
- phytotoxicity rating DIGSA ([8]; 63 g ai/ha): 60
- phytotoxicity rating AMARE [9, 27]: 99
- phytotoxicity rating CASOB ([10]; 63 g ai/ha): 50
- phytotoxicity rating ABUTH ([11]; 63 g ai/ha): 95
- crop damage rating CORN ([12]; 63 g ai/ha): 60
- crop damage rating RICE ([13]; 63 g ai/ha): 10
- phytotoxicity rating ECHCG ([14]; 63 g ai/ha): 30
- phytotoxicity rating XANST ([15]; 63 g ai/ha): 30
- phytotoxicity rating AMBEL ([16]; 63 g ai/ha): 60
- phytotoxicity rating SETVI ([17]; 63 g ai/ha): 55
- phytotoxicity rating IPOHE ([18]; 63 g ai/ha): 80
- phytotoxicity rating SORHA ([19]; 63 g ai/ha): 90
- phytotoxicity rating CHEAL ([20]; 63 g ai/ha): 100
- phytotoxicity rating DIGSA ([21]; 63 g ai/ha): 60
- phytotoxicity rating AMARE ([22]; 63 g ai/ha): 100
- phytotoxicity rating CASOB ([23]; 63 g ai/ha): 70
- phytotoxicity rating ABUTH ([24]; 63 g ai/ha): 100
- crop damage rating CORN ([25]; 63 g ai/ha): 50
- crop damage rating RICE ([26]; 63 g ai/ha): 30

Compound: Cn1c(C(F)(F)F)cc(=O)n(-c2cc(C(=O)NN=C(c3ccccc3)c3ccccc3)c(Cl)cc2F)c1=O [Compound 6-15]
- phytotoxicity rating ECHCO ([1]; 63 g ai/ha): 50
- phytotoxicity rating ECHCO ([1]; 250 g ai/ha): 65
- phytotoxicity rating XANST ([2]; 63 g ai/ha): 70
- phytotoxicity rating XANST ([2]; 250 g ai/ha): 75
- phytotoxicity rating AMBEL ([3]; 63 g ai/ha): 80
- phytotoxicity rating AMBEL ([3]; 250 g ai/ha): 80
- phytotoxicity rating SETVI ([4]; 63 g ai/ha): 55
- phytotoxicity rating SETVI ([4]; 250 g ai/ha): 60
- phytotoxicity rating IPOHE ([5]; 63 g ai/ha): 75
- phytotoxicity rating IPOHE ([5]; 250 g ai/ha): 100
- phytotoxicity rating SORHA ([6]; 63 g ai/ha): 0
- phytotoxicity rating SORHA ([6]; 250 g ai/ha): 15
- phytotoxicity rating CHEAL ([7]; 63 g ai/ha): 90
- phytotoxicity rating CHEAL ([7]; 250 g ai/ha): 90
- phytotoxicity rating DIGSA ([8]; 63 g ai/ha): 20
- phytotoxicity rating DIGSA ([8]; 250 g ai/ha): 50
- phytotoxicity rating AMARE [9, 27]: 90
- phytotoxicity rating AMARE ([9]; 250 g ai/ha, scale 0-100): 90
- phytotoxicity rating CASOB ([10]; 63 g ai/ha): 70
- phytotoxicity rating CASOB ([10]; 250 g ai/ha): 75
- phytotoxicity rating ABUTH ([11]; 63 g ai/ha): 80
- phytotoxicity rating ABUTH ([11]; 250 g ai/ha): 98
- crop damage rating CORN ([12]; 63 g ai/ha): 20
- crop damage rating CORN ([12]; 250 g ai/ha): 25
- crop damage rating RICE ([13]; 63 g ai/ha): 0
- crop damage rating RICE ([13]; 250 g ai/ha): 0
- phytotoxicity rating ECHCG ([14]; 63 g ai/ha): 0
- phytotoxicity rating ECHCG ([14]; 250 g ai/ha): 35
- phytotoxicity rating XANST ([15]; 63 g ai/ha): 30
- phytotoxicity rating XANST ([15]; 250 g ai/ha): 60
- phytotoxicity rating AMBEL ([16]; 63 g ai/ha): 70
- phytotoxicity rating AMBEL ([16]; 250 g ai/ha): 95
- phytotoxicity rating SETVI ([17]; 63 g ai/ha): 75
- phytotoxicity rating SETVI ([17]; 250 g ai/ha): 98
- phytotoxicity rating IPOHE ([18]; 63 g ai/ha): 15
- phytotoxicity rating IPOHE ([18]; 250 g ai/ha): 95
- phytotoxicity rating SORHA ([19]; 63 g ai/ha): 40
- phytotoxicity rating SORHA ([19]; 250 g ai/ha): 95
- phytotoxicity rating CHEAL ([20]; 63 g ai/ha): 100
- phytotoxicity rating CHEAL ([20]; 250 g ai/ha): 100
- phytotoxicity rating DIGSA ([21]; 63 g ai/ha): 85
- phytotoxicity rating DIGSA ([21]; 250 g ai/ha): 99
- phytotoxicity rating AMARE ([22]; 63 g ai/ha): 100
- phytotoxicity rating AMARE ([22]; 250 g ai/ha): 100
- phytotoxicity rating CASOB ([23]; 63 g ai/ha): 65
- phytotoxicity rating CASOB ([23]; 250 g ai/ha): 99
- phytotoxicity rating ABUTH ([24]; 63 g ai/ha): 100
- phytotoxicity rating ABUTH ([24]; 250 g ai/ha): 100
- crop damage rating CORN ([25]; 63 g ai/ha): 0
- crop damage rating CORN ([25]; 250 g ai/ha): 0
- crop damage rating RICE ([26]; 63 g ai/ha): 0
- crop damage rating RICE ([26]; 250 g ai/ha): 0

Reference: patent US6770597B2, “Benzohydrazide derivatives as herbicides and desiccant compositions containing them” (Ishihara Sangyo Kaisha, Ltd., priority 2002, dated 2004)
